From EP4745134A1 (Jiangsu Yahong Meditech Co., Ltd., priority 2023, dated 2025)

Tests used:
PRMT5-MTA = PRMT5-MTA (Homo sapiens, UniProt O14744); test: Enzymatic inhibitory activity against PRMT5-MTA (AlphaScreen); type: biochemical; settings: read-out: IC50
Summary of the method: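 PRMT5/[…] (1 nM) was preincubated for 30 min at room temperature with 1 µM […] and 2.5 µM SAM, then exposed to compound (10-point, 3-fold from 1000 nM) for 15 min at 23 °C. Histone H4 substrate (5 nM) was added and reacted for 45 min at 23 °C. Symmetric dimethyl-R3 H4 was detected by AlphaScreen and IC50 calculated.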

HCT116 MTAP KO cells = test: Inhibitory activity against cell proliferation (CellTiter Glo, 6 days), HCT116 MTAP KO; type: cell-based; settings: for IC50: Homo sapiens, HCT-116, 144 h, HCT116 MTAP KO cells, 6 days, CellTiter Glo, read-out: HCT116 MTAP KO IC50; for Selectivity HCT 116-WT/ HCT116 MTAP KO: ratio of IC50 HCT116-WT / HCT116 MTAP KO
Summary of the method: (§1)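 Luminescence read-out (CellTiter Glo, 10 min shaking at room temperature) after 6 days of compound exposure; IC50 fitted against DMSO controls. Top dose 10000 nM, 4-fold steps, 8 points; 250 cells/well in McCoy's 5A + 10% FBS.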

HCT116-WT cells = test: Inhibitory activity against cell proliferation (CellTiter Glo, 6 days), HCT116-WT; type: cell-based; settings: 144 h, HCT116-WT cells, 6 days, CellTiter Glo; read-out: HCT116-WT IC50
Summary of the method: as §1

Chain of PRMT5-MTA (O14744 whole entry): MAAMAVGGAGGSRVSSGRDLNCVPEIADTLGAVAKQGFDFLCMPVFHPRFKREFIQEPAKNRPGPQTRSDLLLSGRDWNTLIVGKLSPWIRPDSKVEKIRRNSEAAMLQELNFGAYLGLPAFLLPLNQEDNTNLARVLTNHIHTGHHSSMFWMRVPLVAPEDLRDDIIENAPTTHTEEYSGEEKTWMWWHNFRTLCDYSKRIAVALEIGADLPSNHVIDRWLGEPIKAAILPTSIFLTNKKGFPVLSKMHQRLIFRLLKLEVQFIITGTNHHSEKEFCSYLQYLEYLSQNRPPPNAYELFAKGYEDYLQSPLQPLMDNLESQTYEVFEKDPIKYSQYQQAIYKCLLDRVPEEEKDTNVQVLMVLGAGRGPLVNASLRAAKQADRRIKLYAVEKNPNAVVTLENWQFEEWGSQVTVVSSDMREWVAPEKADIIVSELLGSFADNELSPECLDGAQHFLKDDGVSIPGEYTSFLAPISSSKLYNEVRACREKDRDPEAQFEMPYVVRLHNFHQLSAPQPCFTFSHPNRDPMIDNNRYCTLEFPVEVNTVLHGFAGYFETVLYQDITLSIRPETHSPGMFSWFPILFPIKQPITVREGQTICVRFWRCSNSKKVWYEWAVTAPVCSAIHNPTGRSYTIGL
Chain of PRMT5-MTA (Q9BQA1 whole entry partner): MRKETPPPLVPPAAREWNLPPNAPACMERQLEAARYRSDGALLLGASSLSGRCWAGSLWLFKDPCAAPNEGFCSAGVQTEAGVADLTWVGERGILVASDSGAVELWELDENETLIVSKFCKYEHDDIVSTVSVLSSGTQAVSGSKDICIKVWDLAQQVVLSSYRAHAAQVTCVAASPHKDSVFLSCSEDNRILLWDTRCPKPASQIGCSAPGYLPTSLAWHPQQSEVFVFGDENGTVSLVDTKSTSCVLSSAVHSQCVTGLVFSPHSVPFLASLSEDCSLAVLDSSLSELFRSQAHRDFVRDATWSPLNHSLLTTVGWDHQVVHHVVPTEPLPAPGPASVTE

Cc1cc2cc(C(=O)N(Cc3ccc(C(F)(F)F)cn3)Nc3ncccc3F)ccc2nc1N [Example 56, 2-amino-N'-(3-fluoropyridin-2-yl)-3-met hyl-N-((5-(trifluoromethyl)pyridin-2-yl)methyl)quinoline-6-carbohydrazide]
IC50 (PRMT5-MTA): 3.5 nM
IC50 (HCT116 MTAP KO cells): 139 nM
Selectivity HCT 116-WT/ HCT116 MTAP KO (HCT116 MTAP KO cells): 23.99
IC50 (HCT116-WT cells): 3330 nM

Cc1cc2cc(C(=O)N(Cc3ccc(C(F)(F)F)cn3)N(C)c3ncc(OC(F)F)cn3)ccc2nc1N [Example 57, 2-amino-N'-(5-(difluoromethoxy)pyrimidin-2-yl)-N',3-dimethyl-N-((5-(trifluoromethyl)pyridin-2-yl)methyl)quinoline-6-carbohydrazide]
IC50 (PRMT5-MTA): 1.9 nM
IC50 (HCT116 MTAP KO cells): 490 nM
Selectivity HCT 116-WT/ HCT116 MTAP KO (HCT116 MTAP KO cells): 11.51
IC50 (HCT116-WT cells): 5640 nM

Cc1cc2cc(C(=O)N(Cc3ccc(C(F)(F)F)cn3)N(C)c3ncc(C#N)cn3)ccc2nc1N [Example 58, 2-amino-N'-(5-cyanopyrimidin-2-yl)-N',3-dimethyl-N-((5-(trifluoromethyl)pyridin-2-yl)methyl)quinoline-6-carbohydrazide]
IC50 (PRMT5-MTA): 4 nM
IC50 (HCT116 MTAP KO cells): 210 nM
Selectivity HCT 116-WT/ HCT116 MTAP KO (HCT116 MTAP KO cells): 14.92
IC50 (HCT116-WT cells): 3130 nM

Cc1cc2cc(C(=O)N(Cc3ccc(C(F)(F)F)cn3)Nc3ncccn3)ccc2nc1N [Example 59, 2-amino-3-methyl-N'-(pyrimidin-2-yl)-N-((5-(trifluoromethyl)pyridin-2-yl)methyl) quinoline-6-carbohydrazide]
IC50 (PRMT5-MTA): 2 nM
IC50 (HCT116 MTAP KO cells): 257 nM
Selectivity HCT 116-WT/ HCT116 MTAP KO (HCT116 MTAP KO cells): 16.43
IC50 (HCT116-WT cells): 4220 nM

Cc1cc2cc(C(=O)N(Cc3ccc(Br)cn3)N(C)c3ncccc3C(F)(F)F)ccc2nc1N [Example 60, 2-amino-N-((5-bromopyridin-2-yl)methyl)-N',3-dimethyl-N'-(3-(trifluoromethyl)pyridin-2-yl)quinoline-6-carbohydrazide]
IC50 (PRMT5-MTA): 2.3 nM
IC50 (HCT116 MTAP KO cells): 60 nM
Selectivity HCT 116-WT/ HCT116 MTAP KO (HCT116 MTAP KO cells): 11.80
IC50 (HCT116-WT cells): 708 nM

Cc1cc2cc(C(=O)N(Cc3cc(C(F)(F)F)ccn3)N(C)c3ncccn3)ccc2nc1N [Example 61, 2-amino-N',3-dimethyl-N'-(pyrimidin-2-yl)-N-((4-(trifluoromethyl)pyridin-2-yl)methyl)quinoline-6-carbohydrazide]
IC50 (PRMT5-MTA): 2.4 nM
IC50 (HCT116 MTAP KO cells): 126 nM
Selectivity HCT 116-WT/ HCT116 MTAP KO (HCT116 MTAP KO cells): 18.95
IC50 (HCT116-WT cells): 2390 nM

[2H]C([2H])([2H])N(c1nccc2nccnc12)N(Cc1ccc(C(F)(F)F)cn1)C(=O)c1ccc2nc(N)c(C)cc2c1 [Example 62]
IC50 (PRMT5-MTA): 5.1 nM
IC50 (HCT116 MTAP KO cells): 86 nM
Selectivity HCT 116-WT/ HCT116 MTAP KO (HCT116 MTAP KO cells): 17.42
IC50 (HCT116-WT cells): 1500 nM

[2H]C([2H])([2H])N(c1nccc2nccnc12)N(Cc1ccc(Br)cn1)C(=O)c1ccc2nc(N)c(C)cc2c1 [Example 63, 2-amino-N-((5-bromopyridin-2-yl)methyl)-3-methyl-N'-(methyl-d3)-N'-(pyrido[3,4-b]pyrazin-5-yl)quinoline-6-carbohydrazide]
IC50 (PRMT5-MTA): 3.2 nM
IC50 (HCT116 MTAP KO cells): 53 nM
Selectivity HCT 116-WT/ HCT116 MTAP KO (HCT116 MTAP KO cells): 19.02
IC50 (HCT116-WT cells): 1010 nM

[2H]C([2H])([2H])N(c1ncccn1)N(Cc1ccc(Br)cn1)C(=O)c1ccc2nc(N)c(C)cc2c1 [Example 64, 2-amino-N-((5-bromopyridin-2-yl)methyl)-3-methyl-N'-(methyl-d3)-N'-(pyrimidin-2-yl)quinoline-6-carbohydrazide]
IC50 (PRMT5-MTA): 1.7 nM
IC50 (HCT116 MTAP KO cells): 38 nM
Selectivity HCT 116-WT/ HCT116 MTAP KO (HCT116 MTAP KO cells): 24.16
IC50 (HCT116-WT cells): 918 nM

Cc1cc2cc(C(=O)N(Cc3ccc(C(F)(F)F)cn3)N(c3nccc4nccnc34)C3CC3)ccc2nc1N [Example 65, 2-amino-N'-cyclopropyl-3-methyl-N'-(pyrido[3,4-b]pyrazin-5-yl)-N-((5-(trifluoromethyl)pyridin-2-yl)methyl)quinoline-6-carbohydrazide]
IC50 (PRMT5-MTA): 4 nM
IC50 (HCT116 MTAP KO cells): 48 nM
Selectivity HCT 116-WT/ HCT116 MTAP KO (HCT116 MTAP KO cells): 44.77
IC50 (HCT116-WT cells): 2150 nM

Cc1cc2cc(C(=O)N(Cc3ccc(C(F)(F)F)cn3)N(C)c3ncccc3Cl)ccc2nc1N [Example 66, 2-amino-N'-(3-chloropyridin-2-yl)-N',3-d imethyl-N-((5-(trifluoromethyl)pyridin-2-yl)methyl)quinoline-6-carbohydrazide]
IC50 (PRMT5-MTA): 3.9 nM
IC50 (HCT116 MTAP KO cells): 124 nM
Selectivity HCT 116-WT/ HCT116 MTAP KO (HCT116 MTAP KO cells): 16.06
IC50 (HCT116-WT cells): 1990 nM

Cc1cc2cc(C(=O)N(Cc3ccc(Br)cn3)N(C)c3ncccn3)ccc2nc1N [Example 67, 2-amino-N-((5-bromopyridin-2-yl)methyl)-N',3-dimethyl-N'-(pyrimidin-2-yl)quin oline-6-carbohydrazide]
IC50 (PRMT5-MTA): 1.5 nM
IC50 (HCT116 MTAP KO cells): 40 nM
Selectivity HCT 116-WT/ HCT116 MTAP KO (HCT116 MTAP KO cells): 40.08
IC50 (HCT116-WT cells): 1600 nM

Cc1cc2cc(C(=O)N(Cc3ccc(C(F)(F)F)cn3)N(C)c3ncc(Cl)cn3)ccc2nc1N [Example 69, 2-amino-N'-(5-chloropyrimidin-2-yl)-N', 3-dimethyl-N-((5-(trifluoromethyl)pyridin-2-yl)methyl)quinoline-6-carbohydrazide]
IC50 (PRMT5-MTA): 2.4 nM
IC50 (HCT116 MTAP KO cells): 216 nM
Selectivity HCT 116-WT/ HCT116 MTAP KO (HCT116 MTAP KO cells): 14.63
IC50 (HCT116-WT cells): 3160 nM

Cc1cc2cc(C(=O)N(Cc3ccc(Br)cc3F)N(C)c3nccc4nccnc34)ccc2nc1N [Example 72, 2-amino-N-(4-bromo-2-fluorobenzyl)-N', 3-dimethyl-N'-(pyrido[3,4-b]pyrazin-5-yl)quinoline-6-carbohydrazide]
IC50 (PRMT5-MTA): 2.7 nM
IC50 (HCT116 MTAP KO cells): 92 nM
Selectivity HCT 116-WT/ HCT116 MTAP KO (HCT116 MTAP KO cells): 17.50
IC50 (HCT116-WT cells): 1610 nM

Cc1cc2cc(C(=O)N(Cc3ccc(Br)cn3)N(C)c3nccc4nccnc34)ccc2nc1N [Example 73, 2-amino-N-((5-bromopyridin-2-yl)methyl)-N',3-dimethyl-N'-(pyrido[3,4-b]pyrazin-5-yl)quinoline-6-carbohydrazide]
IC50 (PRMT5-MTA): 2.5 nM
IC50 (HCT116 MTAP KO cells): 40 nM
Selectivity HCT 116-WT/ HCT116 MTAP KO (HCT116 MTAP KO cells): 29.88
IC50 (HCT116-WT cells): 1200 nM

Cc1cc2cc(C(=O)N(Cc3ccc(C(F)(F)F)cn3)N(C)c3ccccc3)ccc2nc1N [Example 75, 2-amino-N',3-dimethyl-N'-phenyl-N-((5-(trifluoromethyl)pyridin-2-yl)methyl)quinoline-6-carbohydrazide]
IC50 (PRMT5-MTA): 3.1 nM
IC50 (HCT116 MTAP KO cells): 80 nM
Selectivity HCT 116-WT/ HCT116 MTAP KO (HCT116 MTAP KO cells): 11.26
IC50 (HCT116-WT cells): 901 nM

COc1ccnc(N(C)N(Cc2ccc(C(F)(F)F)cn2)C(=O)c2ccc3nc(N)c(C)cc3c2)n1 [Example 76, 2-amino-N'-(4-methoxypyrimidin-2-yl)-N',3-dimethyl-N-((5-(trifluoromethyl)pyridin-2-yl)methyl)quinoline-6-carbohydrazide]
IC50 (PRMT5-MTA): 1.6 nM
IC50 (HCT116 MTAP KO cells): 98 nM
Selectivity HCT 116-WT/ HCT116 MTAP KO (HCT116 MTAP KO cells): 21.94
IC50 (HCT116-WT cells): 2150 nM

CN(c1ncccn1)N(Cc1ccc(C(F)(F)F)cn1)C(=O)c1ccc2nc(N)c3ccncc3c2c1 [Example 78, 5-amino-N'-methyl-N'-(pyrimidin-2-yl)-N-((5-(trifluoromethyl)pyridin-2-yl)methyl)benzo[c][2,6]naphthyridine-9-carbohydrazide]
IC50 (PRMT5-MTA): 2 nM
IC50 (HCT116 MTAP KO cells): 14 nM
Selectivity HCT 116-WT/ HCT116 MTAP KO (HCT116 MTAP KO cells): 12.07
IC50 (HCT116-WT cells): 169 nM

Cc1cc2cc(C(=O)N(Cc3ccc(C(F)(F)F)cn3)N(C)c3ncc4ncccc4n3)ccc2nc1N [Example 80, 2-amino-N',3-dimethyl-N'-(pyrido[3,2-d]pyrimidin-2-yl)-N-((5-(trifluoromethyl)pyridin-2-yl)methyl)quinoline-6-carbohydrazide]
IC50 (PRMT5-MTA): 1.9 nM
IC50 (HCT116 MTAP KO cells): 132 nM
Selectivity HCT 116-WT/ HCT116 MTAP KO (HCT116 MTAP KO cells): 14.18
IC50 (HCT116-WT cells): 1870 nM

Cc1cc2cc(C(=O)N(Cc3ccc(Br)cn3)N(c3ncccn3)C3CC3)ccc2nc1N [Example 82, 2-amino-N-((5-bromopyridin-2-yl)methyl)-N'-cyclopropyl-3-methyl-N'-(pyrimidin-2-yl)quinoline-6-carbohydrazide]
IC50 (PRMT5-MTA): 2.2 nM
IC50 (HCT116 MTAP KO cells): 16 nM
Selectivity HCT 116-WT/ HCT116 MTAP KO (HCT116 MTAP KO cells): 17.63
IC50 (HCT116-WT cells): 282 nM

Cc1cc2cc(C(=O)N(Cc3ccc(C(F)(F)F)cn3)N(c3ncccn3)C3CCC3)ccc2nc1N [Example 83, 2-amino-N'-cyclobutyl-3-methyl-N'-(pyrimidin-2-yl)-N-((5-(trifluoromethyl)pyridin-2-yl)methyl)quinoline-6-carbohydrazide]
IC50 (PRMT5-MTA): 4.5 nM
IC50 (HCT116 MTAP KO cells): 134 nM
Selectivity HCT 116-WT/ HCT116 MTAP KO (HCT116 MTAP KO cells): 14.39
IC50 (HCT116-WT cells): 1930 nM

Cc1cc2cc(C(=O)N(Cc3ccc(Br)cc3F)N(C)c3ncccn3)ccc2nc1N [Example 84, 2-amino-N-(4-bromo-2-fluorobenzyl)-N', 3-dimethyl-N'-(pyrimidin-2-yl)quinoline-6-carbohydrazide]
IC50 (PRMT5-MTA): 3.4 nM
IC50 (HCT116 MTAP KO cells): 58 nM
Selectivity HCT 116-WT/ HCT116 MTAP KO (HCT116 MTAP KO cells): 28.17
IC50 (HCT116-WT cells): 1630 nM

Cc1cc2cc(C(=O)N(Cc3ccc(C(F)(F)F)cn3)N(C)c3cccc(C(F)(F)F)n3)ccc2nc1N [Example 88, 2-amino-N',3-dimethyl-N'-(6-(trifluoromethyl)pyridin-2-yl)-N-((5-(trifluoromethyl)pyridin-2-yl)methyl)quinoline-6-carbohydrazide]
IC50 (PRMT5-MTA): 2.5 nM
IC50 (HCT116 MTAP KO cells): 176 nM
Selectivity HCT 116-WT/ HCT116 MTAP KO (HCT116 MTAP KO cells): 11.56
IC50 (HCT116-WT cells): 2030 nM
